Results on 68 sequences are retold here after the supplement of paper PMC11208160.
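Further: IS621 bridge recombinase in Escherichia coli cells against a fixed T5 target plasmid.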

The nature of the series: recombinant UMI read abundance after kanamycin selection (control-corrected) (log10(CPM+1)); higher = more efficient recombination; extreme values may be limits of the assay; sequences stand for … in AGTGCAGAGAAAATCGGCCAGTTTTCTCTGCCTGCAGTCCGCATGCCGTGGGACCCCTTGGGTTCTAACCTGTTGCCTAGATTTATGCAGCGGACTGCCTTTCTCCCAAAGTGATAAACCGG…AGGTTGGTTTCACT; site = the 11-nt donor. Summed up: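 Counts of recombinant UMIs were reported as log10(CPM+1). Before that, they were converted to CPM, averaged over replicates and scaled using control-derived factors. They came from PCR across the donor–target junction after Escherichia coli carrying the pair library and target plasmid was plated on IPTG (0.07 mM) plus kanamycin, or unselected, in two replicates each.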
“CAATTCCCATGGACCGGTTTTCCCGGTAATCCGTATTTGAT (site CAATTCCCTAA)”: the “recombinant UMI read abundance (log10)” value worked out at 0.00345.

In the case of “CAATTCCCATGGACCGGTTTTCCCGGTAATCCGTATTTGAT (site CAATTCCCTAC)”, the “recombinant UMI read abundance (log10)” value was 0.

For the sequence “CAATTCCCATGGACCGGTTTTCCCGGTAATCCGTATTTGAT (site CAATTCCCTAG)”, the “recombinant UMI read abundance (log10)” value is 0.

With “CAATTCCCATGGACCGGTTTTCCCGGTAATCCGTATTTGAT (site CAATTCCCTAT)”, the “recombinant UMI read abundance (log10)” value came to 1.7.

On to “CAATTCCCATGGACCGGTTTTCCCGGTAATCCGTATTTGCG (site CAATTCCCTAG)”, for which the “recombinant UMI read abundance (log10)” value worked out at 1.26.

Take “CAATTCCCATGGACCGGTTTTCCCGGTAATCCGTATTTGCG (site CAATTCCCTCG)”: the “recombinant UMI read abundance (log10)” value was determined as 2.33.

“CAATTCCCATGGACCGGTTTTCCCGGTAATCCGTATTTGCG (site CAATTCCCTGG)”: the “recombinant UMI read abundance (log10)” value was 0.

Consider “CAATTCCCATGGACCGGTTTTCCCGGTAATCCGTATTTGCG (site CAATTCCCTTG)”, for which the “recombinant UMI read abundance (log10)” value was determined as 1.67.

As for “CAATTGCCATGGACCGGTTTTCCCGGTAATCCGTATTTGCT (site CAATTACCTAG)”, the “recombinant UMI read abundance (log10)” value was determined as 0.

Turning to “CAATTGCCATGGACCGGTTTTCCCGGTAATCCGTATTTGCT (site CAATTCCCTAG)”, the “recombinant UMI read abundance (log10)” value was found to be 0.

Consider “CAATTGCCATGGACCGGTTTTCCCGGTAATCCGTATTTGCT (site CAATTGCCTAG)”, for which the “recombinant UMI read abundance (log10)” value was 1.32.

Turning to “CAATTGCCATGGACCGGTTTTCCCGGTAATCCGTATTTGCT (site CAATTTCCTAG)”, the “recombinant UMI read abundance (log10)” value amounted to 0.

As for “CACAAAACATGGACCGGTTTTCCCGGTAATCCGTATTTGGC (site CACAAAACTGC)”, the “recombinant UMI read abundance (log10)” value stood at 1.79.

As to “CACAAACCATGGACCGGTTTTCCCGGTAATCCGTATTTGGT (site AACAAACCTAC)”, the “recombinant UMI read abundance (log10)” value worked out at 0.

Take “CACAAACCATGGACCGGTTTTCCCGGTAATCCGTATTTGGT (site CACAAACCTAC)”: the “recombinant UMI read abundance (log10)” value is 0.

For the sequence “CACAAACCATGGACCGGTTTTCCCGGTAATCCGTATTTGGT (site GACAAACCTAC)”, the “recombinant UMI read abundance (log10)” value was determined as 0.

As to “CACAAACCATGGACCGGTTTTCCCGGTAATCCGTATTTGGT (site TACAAACCTAC)”, the “recombinant UMI read abundance (log10)” value came to 0.

For “CACACATCATGGACCGGTTTTCCCGGTAATCCGTATTTGCC (site CACACATCTGG)”, the “recombinant UMI read abundance (log10)” value was found to be 2.15.

“CACACCTCATGGACCGGTTTTCCCGGTAATCCGTATTTGGC (site CACACCTCTGC)”: the “recombinant UMI read abundance (log10)” value came to 3.07.

Consider “CACACTGCATGGACCGGTTTTCCCGGTAATCCGTATTTGTA (site CACACTGCTTA)”, for which the “recombinant UMI read abundance (log10)” value stood at 1.72.

For “CACAGATCATGGACCGGTTTTCCCGGTAATCCGTATTTGAT (site CACAGATCTAT)”, the “recombinant UMI read abundance (log10)” value was determined as 2.37.

With “CACATGGCATGGACCGGTTTTCCCGGTAATCCGTATTTGTA (site CACATGGCTTA)”, the “recombinant UMI read abundance (log10)” value came out at 2.31.

Turning to “CACCAGTCATGGACCGGTTTTCCCGGTAATCCGTATTTGAC (site CACCAGTCTGT)”, the “recombinant UMI read abundance (log10)” value stood at 0.85.

In the case of “CACCGTACATGGACCGGTTTTCCCGGTAATCCGTATTTGCG (site CACCGTACTCG)”, the “recombinant UMI read abundance (log10)” value was found to be 1.35.

For “CACCGTCCATGGACCGGTTTTCCCGGTAATCCGTATTTGAT (site AACCGTCCTAT)”, the “recombinant UMI read abundance (log10)” value turned out to be 0.117.

On to “CACCGTCCATGGACCGGTTTTCCCGGTAATCCGTATTTGAT (site CACCGTCCTAT)”, for which the “recombinant UMI read abundance (log10)” value worked out at 1.03.

Regarding “CACCGTCCATGGACCGGTTTTCCCGGTAATCCGTATTTGAT (site GACCGTCCTAT)”, the “recombinant UMI read abundance (log10)” value is 0.00326.

As for “CACCGTCCATGGACCGGTTTTCCCGGTAATCCGTATTTGAT (site TACCGTCCTAT)”, the “recombinant UMI read abundance (log10)” value worked out at 0.0173.

For the sequence “CACCTCTCATGGACCGGTTTTCCCGGTAATCCGTATTTGCT (site CACCTCTCTAG)”, the “recombinant UMI read abundance (log10)” value was 2.84.

In the case of “CACCTGCCATGGACCGGTTTTCCCGGTAATCCGTATTTGTC (site CACCTGCCTGA)”, the “recombinant UMI read abundance (log10)” value was 0.

Regarding “CACCTTACATGGACCGGTTTTCCCGGTAATCCGTATTTGGG (site CACCTTACTCC)”, the “recombinant UMI read abundance (log10)” value came to 0.0575.

On to “CACGCAGCATGGACCGGTTTTCCCGGTAATCCGTATTTGCT (site CAAGCAGCTAG)”, for which the “recombinant UMI read abundance (log10)” value was determined as 0.

For the sequence “CACGCAGCATGGACCGGTTTTCCCGGTAATCCGTATTTGCT (site CACGCAGCTAG)”, the “recombinant UMI read abundance (log10)” value is 2.31.

As to “CACGCAGCATGGACCGGTTTTCCCGGTAATCCGTATTTGCT (site CAGGCAGCTAG)”, the “recombinant UMI read abundance (log10)” value was determined as 0.261.

For “CACGCAGCATGGACCGGTTTTCCCGGTAATCCGTATTTGCT (site CATGCAGCTAG)”, the “recombinant UMI read abundance (log10)” value was determined as 0.

For “CACGCCGCATGGACCGGTTTTCCCGGTAATCCGTATTTGGT (site TTAAGTTCTTG)”, the “recombinant UMI read abundance (log10)” value worked out at 0.

Turning to “CACGCGTCATGGACCGGTTTTCCCGGTAATCCGTATTTGAG (site CACGCGTCTCT)”, the “recombinant UMI read abundance (log10)” value was 2.11.

As for “CACGGCACATGGACCGGTTTTCCCGGTAATCCGTATTTGTT (site CACGGCACTAA)”, the “recombinant UMI read abundance (log10)” value stood at 1.6.

As for “CACGGCACATGGACCGGTTTTCCCGGTAATCCGTATTTGTT (site CACGGCCCTAA)”, the “recombinant UMI read abundance (log10)” value was 0.00343.

Turning to “CACGGCACATGGACCGGTTTTCCCGGTAATCCGTATTTGTT (site CACGGCGCTAA)”, the “recombinant UMI read abundance (log10)” value is 0.6.

Turning to “CACGGCACATGGACCGGTTTTCCCGGTAATCCGTATTTGTT (site CACGGCTCTAA)”, the “recombinant UMI read abundance (log10)” value was determined as 0.746.

Take “CACGGCTCATGGACCGGTTTTCCCGGTAATCCGTATTTGTT (site CACGGCACTAA)”: the “recombinant UMI read abundance (log10)” value was 0.963.

Turning to “CACGGCTCATGGACCGGTTTTCCCGGTAATCCGTATTTGTT (site CACGGCCCTAA)”, the “recombinant UMI read abundance (log10)” value was 0.277.

For the sequence “CACGGCTCATGGACCGGTTTTCCCGGTAATCCGTATTTGTT (site CACGGCGCTAA)”, the “recombinant UMI read abundance (log10)” value is 0.0461.

As to “CACGGCTCATGGACCGGTTTTCCCGGTAATCCGTATTTGTT (site CACGGCTCTAA)”, the “recombinant UMI read abundance (log10)” value turned out to be 3.26.

As for “CACGTACCATGGACCGGTTTTCCCGGTAATCCGTATTTGAA (site CACGTACCTTT)”, the “recombinant UMI read abundance (log10)” value came out at 0.24.

On to “CACGTCACATGGACCGGTTTTCCCGGTAATCCGTATTTGAG (site CACGTCACTCT)”, for which the “recombinant UMI read abundance (log10)” value was found to be 1.36.

Regarding “CACTACGCATGGACCGGTTTTCCCGGTAATCCGTATTTGGA (site CACTACGCTTC)”, the “recombinant UMI read abundance (log10)” value is 1.41.

“CACTCATCATGGACCGGTTTTCCCGGTAATCCGTATTTGCC (site CACTCATCTGG)”: the “recombinant UMI read abundance (log10)” value stood at 1.74.

For “CACTCATCATGGACCGGTTTTCCCGGTAATCCGTATTTGCC (site CACTCCTCTGG)”, the “recombinant UMI read abundance (log10)” value was determined as 0.652.

On to “CACTCATCATGGACCGGTTTTCCCGGTAATCCGTATTTGCC (site CACTCGTCTGG)”, for which the “recombinant UMI read abundance (log10)” value came out at 0.

For “CACTCATCATGGACCGGTTTTCCCGGTAATCCGTATTTGCC (site CACTCTTCTGG)”, the “recombinant UMI read abundance (log10)” value was found to be 0.

For “CACTCCACATGGACCGGTTTTCCCGGTAATCCGTATTTGCC (site CACTCCACTGG)”, the “recombinant UMI read abundance (log10)” value was found to be 2.65.

Turning to “CACTCCACATGGACCGGTTTTCCCGGTAATCCGTATTTGCC (site CACTCCCCTGG)”, the “recombinant UMI read abundance (log10)” value is 0.

As to “CACTCCACATGGACCGGTTTTCCCGGTAATCCGTATTTGCC (site CACTCCGCTGG)”, the “recombinant UMI read abundance (log10)” value stood at 1.8.

Regarding “CACTCCACATGGACCGGTTTTCCCGGTAATCCGTATTTGCC (site CACTCCTCTGG)”, the “recombinant UMI read abundance (log10)” value worked out at 1.26.

Consider “CACTCCGCATGGACCGGTTTTCCCGGTAATCCGTATTTGCC (site CACTCCACTGG)”, for which the “recombinant UMI read abundance (log10)” value is 2.05.

For “CACTCCGCATGGACCGGTTTTCCCGGTAATCCGTATTTGCC (site CACTCCCCTGG)”, the “recombinant UMI read abundance (log10)” value came out at 0.

Consider “CACTCCGCATGGACCGGTTTTCCCGGTAATCCGTATTTGCC (site CACTCCGCTGG)”, for which the “recombinant UMI read abundance (log10)” value was 2.73.

Take “CACTCCGCATGGACCGGTTTTCCCGGTAATCCGTATTTGCC (site CACTCCTCTGG)”: the “recombinant UMI read abundance (log10)” value turned out to be 1.36.

Take “CACTCCTCATGGACCGGTTTTCCCGGTAATCCGTATTTGAG (site CACTCCTCTCT)”: the “recombinant UMI read abundance (log10)” value came out at 0.883.

With “CACTCCTCATGGACCGGTTTTCCCGGTAATCCGTATTTGCA (site CACTCCTCTAG)”, the “recombinant UMI read abundance (log10)” value worked out at 0.743.

In the case of “CACTCCTCATGGACCGGTTTTCCCGGTAATCCGTATTTGCA (site CACTCCTCTCG)”, the “recombinant UMI read abundance (log10)” value amounted to 1.09.

Consider “CACTCCTCATGGACCGGTTTTCCCGGTAATCCGTATTTGCA (site CACTCCTCTGG)”, for which the “recombinant UMI read abundance (log10)” value turned out to be 1.21.

Regarding “CACTCCTCATGGACCGGTTTTCCCGGTAATCCGTATTTGCA (site CACTCCTCTTG)”, the “recombinant UMI read abundance (log10)” value turned out to be 2.98.

Take “CACTCCTCATGGACCGGTTTTCCCGGTAATCCGTATTTGCC (site AACTCCTCTGG)”: the “recombinant UMI read abundance (log10)” value amounted to 0.563.

Consider “CACTCCTCATGGACCGGTTTTCCCGGTAATCCGTATTTGCC (site CAATCCTCTGG)”, for which the “recombinant UMI read abundance (log10)” value is 0.883.

Regarding “CACTCCTCATGGACCGGTTTTCCCGGTAATCCGTATTTGCC (site CACACCTCTGG)”, the “recombinant UMI read abundance (log10)” value was determined as 1.79.
